Laboratory results published in US20230285294A1, “METHOD AND SYSTEM FOR OTOTOPICAL DELIVERY USING NANOPARTICLES FOR EAR INFECTION DIAGNOSIS AND TREATMENT” (THE BOARD OF TRUSTEES OF THE LELAND STANFORD JUNIOR …, priority 2020, published 2023).

Tested on: eardrum
Test: Confocal microscopy of ear sections: permeation of vesicles through the eardrum into the middle and inner ear
Description: Further consideration of the various images in FIGS. 10A-11D one may observe from these confocal images of eardrum and vesicles penetration into the middle ear at different time points. To verify the permeation of the formulated vesicles through the eardrum we looked at the ear sections under confocal microscopy. […] (See FIG. 11B).
FIGS. 12A-14D relate to a series of confocal imaging at higher magnification of tympanic membrane.
FIG. 15A is showing imaging specificity of TF-RnB in red. FIG. 15B is showing imaging specificity to DAPI in blue. FIG. 15C is showing a color composite overlay of the images in FIGS. 15A and 15B.
These confocal images from inner ear show particle penetrations beyond the middle ear to inner ear. (FIG. 15C). As such, it is believed that potential applications of various embodiments of a liposomal nanoparticle may be used for inner ear drug delivery.

- penetration through eardrum into middle ear (confocal fluorescence) (6 h post-treatment): did not observe any fluorescent
Structure (SMILES): CCN(CC)c1ccc2c(-c3ccccc3C(=O)O)c3ccc(=[N+](CC)CC)cc-3oc2c1.[Cl-] [pure RhB, Rhodamine B]
- penetration of tympanic membrane layers (confocal imaging at higher magnification) (6 hours, FIGS. 12D and 14D): stays on the surface of tympanic membrane without any penetration
